From US20240351967A1, “METHODS OF PREPARATION OF ZINGERONE, COMPOSITIONS COMPRISING ZINGERONE, AND USES THEREFOR” (Evithe Limited, priority 2021, published 2024)
≈ marks a conversion by molar mass, not a printed value. Where “and” joins values, the source holds several entries; their conditions need not be identical. Identical values can stand only once. Like-named read-outs stand apart in the source and are kept apart here.

Key:
[1] = test system: Staphylococcus aureus; experiment: Chequerboard analysis / MIC against Staphylococcus aureus (MRSA cells); type: cell-based
Method: Chequerboard analysis was used to determine whether compounds could be combined to decrease the MIC for Staphylococcus aureus, as compared to each individual compound. In the present experiments, combinations of zingerone plus gentamicin, zingerone plus vancomycin, and zingerone plus cefotaxime were tested. For this testing, 96 well plates were inoculated Staphylococcus aureus, and then incubated with the test compounds for 24 hours at 37° C. For zingerone, additions were made at […], 12.5, and 25 mg/ml. For gentamicin, additions were made at 0, 4, 8, 16, 32, 64, 128, and 256 μg/ml. For vancomycin, additions were made at 0, 4, 8, 16, 32, 64, 128, and 256 μg/ml. For cefotaxime, additions were made at 0, 8, 16, 32, 64, 128, 256, and 512 μg/ml. MRSA cells (methicillin-resistant Staphylococcus aureus) were introduced in Mueller Hinton media with 2% NaCl. 10^8 cells per ml were utilised. The FICI index was used to quantify the interaction of the compounds interact employing the following equation: FICI=(MICA^combi/MICA^alone)+ (MICB^combi/MICB^alone). A FICI of ≤0.5 was designated as synergy, and a FICI of >4.0 was defined as antagonism. A FICI of 0.5 to 1.0 was deemed as a significant improvement although not synergistic.

[2] = cited from earlier work
[3] = EFSA 2016; 14 (8): 4557; cited from earlier work
[4] = test system: liver inflammation; settings: peritonitis mouse model; cited from earlier work
[5] = test system: Pseudomonas aeruginosa; settings: cited from earlier work
[6] = individual compound, 24 hours at 37° C., MRSA in Mueller Hinton media with 2% NaCl

For CN[C@H](CC(C)C)C(=O)N[C@H]1C(=O)N[C@@H](CC(N)=O)C(=O)N[C@H]2C(=O)N[C@H]3C(=O)N[C@H](C(=O)N[C@H](C(=O)O)c4cc(O)cc(O)c4-c4cc3ccc4O)[C@H](O)c3ccc(c(Cl)c3)Oc3cc2cc(c3O[C@@H]2O[C@H](CO)[C@@H](O)[C@H](O)[C@H]2O[C@H]2C[C@](C)(N)[C@H](O)[C@H](C)O2)Oc2ccc(cc2Cl)[C@H]1O [Vancomycin, reference compound], the MIC ([1]; Staphylococcus aureus, MRSA, 24 h) was 8 µg/mL.
Gentamicin [reference compound] gave an MIC ([1]; gentamicin in combination with zingerone) of 4 µg/mL and an MIC [1, 6] of 16 µg/mL.
CO/N=C(\C(=O)N[C@@H]1C(=O)N2C(C(=O)O)=C(COC(C)=O)CS[C@H]12)c1csc(N)n1 [Cefotaxime, reference compound] gave an MIC ([1]; Staphylococcus aureus, individual compound, 24 hours at 37° C., MRSA in Mueller Hinton media with 2% NaCl, read-out: MIC) of over 512 µg/mL.
With COc1cc(CCC(C)=O)ccc1O [Zingerone] the MIC [1, 6] was 25 mg/g, the MIC ([1]; zingerone in combination with cefotaxime) was 25 mg/g and the MIC ([1]; zingerone in combination with gentamicin) was 6.25 mg/g. For the same compound, the MIC ([1]; zingerone in combination with vancomycin) was 12.5 mg/g, the “Log P” value ([2]; FoodB compounds database) was 2.02 and 1.92 and the water solubility ([2]; FoodB compounds database) was 0.57 g/L (≈ 2930 µM). The “solubility (in words)” value ([2]; reported) was “sparingly soluble in water”, the “No Observed Adverse Effects (NOAEL) dose” value [3] was 128 mg/kg/day and the “effect on liver inflammation” value [4] was “anti-inflammatory effect”. The “effect on susceptibility of cells to antibiotics” value [5] was “enhance the susceptibility”.
